In PubChem BioAssay AID330 (DTP/NCI, 2004):
“And” between values parts separate entries of the source, which are not always exact repeats. Equal entries are not always repeated. Inconclusive results and toxic doses are left out. How the source made its calls: active means survival T/C of 150% or more; inactive means T/C below 125% in these data.

Tested on: P388 leukemia ip, CD2F1 mice, survival T/C
Experiment: NCI In Vivo Anticancer Drug Screen. Data for tumor model P388 Leukemia (intraperitoneal) in CD2F1 (CDF1) mice
Conditions: endpoint: median survival time, higher = longer survival
Method in brief: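 Mice carrying the transplanted tumor received test compound or vehicle. Survival was recorded in each group, and the value is the treated-group measurement divided by that of the vehicle-treated control group.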

[1] = dose: 60.0 mg/kg/injection, schedule: Q01DX005 (ip), vehicle: saline with Tween-80
[2] = dose: 50.0 mg/kg/injection, schedule: Q01DX005 (ip), vehicle: saline
[3] = dose: 100.0 mg/kg/injection, schedule: Q01DX005 (ip), vehicle: saline
[4] = dose: 200.0 mg/kg/injection, schedule: Q01DX005 (ip), vehicle: saline
[5] = dose: 100.0 mg/kg/injection, schedule: Q04DX003 (ip), vehicle: Klucel (hydroxypropylcellulose) (HPC)
[6] = dose: 200.0 mg/kg/injection, schedule: Q04DX003 (ip), vehicle: Klucel (hydroxypropylcellulose) (HPC)
[7] = dose: 400.0 mg/kg/injection, schedule: Q04DX003 (ip), vehicle: Klucel (hydroxypropylcellulose) (HPC)
[8] = dose: 100.0 mg/kg/injection, schedule: Q04DX002 (ip), vehicle: Klucel (hydroxypropylcellulose) (HPC)
[9] = dose: 200.0 mg/kg/injection, schedule: Q04DX002 (ip), vehicle: Klucel (hydroxypropylcellulose) (HPC)
[10] = dose: 400.0 mg/kg/injection, schedule: Q04DX002 (ip), vehicle: Klucel (hydroxypropylcellulose) (HPC)

Measured: T/C

CC1NCC23CCC4C(CC=C5CC(O)CCC54C)C2CCC13 (stereo unspecified)
inactive: dose: 25.0 mg/kg/injection, schedule: Q01DX009 (ip), vehicle: saline with Tween-80 90 % of control | dose: 50.0 mg/kg/injection, schedule: Q01DX009 (ip), vehicle: saline with Tween-80 87 % of control | dose: 100.0 mg/kg/injection, schedule: Q01DX009 (ip), vehicle: saline with Tween-80 94 % of control

O=[N+]([O-])c1ccc(COc2ccccc2)cc1
inactive: dose: 100.0 mg/kg/injection, schedule: Q01DX001 (ip), vehicle: saline 104 % of control | dose: 200.0 mg/kg/injection, schedule: Q01DX001 (ip), vehicle: saline 113 % of control | dose: 400.0 mg/kg/injection, schedule: Q01DX001 (ip), vehicle: saline 124 % of control

S=C1N(c2ccc(Cl)cc2)C2=C(N=Nc3cc(Cl)ccc3Cl)C(=Nc3ccccc3S2)N1c1ccccn1
inactive: dose: 15.0 mg/kg/injection, schedule: Q01DX005 (ip), vehicle: saline with Tween-80 100 % of control | dose: 30.0 mg/kg/injection, schedule: Q01DX005 (ip), vehicle: saline with Tween-80 110 % of control | [1] 106 % of control and 110 % of control

CCCCCOC(=O)c1ccccc1OP(=O)(N(C)C)N(C)C
inactive: [2] 103 % of control | [3] 110 % of control

CCN1CC2(COC)C(O)CC(OC)C34C5CC6(O)C(O)C5C(O)(C(O)C6OC)C(C(OC)C23)C14 (stereo unspecified)
inactive: dose: 25.0 mg/kg/injection, schedule: Q01DX005 (ip), vehicle: saline 114 % of control | [2] 102 % of control | [3] 107 % of control | [4] 104 % of control

O=C(NCc1ccco1)Nc1ccccc1C(F)(F)F
inactive: [1] 94 % of control | dose: 120.0 mg/kg/injection, schedule: Q01DX005 (ip), vehicle: saline with Tween-80 99 % of control | dose: 240.0 mg/kg/injection, schedule: Q01DX005 (ip), vehicle: saline with Tween-80 90 % of control

CCn1c2ccccc2c2cc(N=Nc3ccc(N)c4ccccc34)ccc21
inactive: [5] 97 % of control | [6] 101 % of control | [7] 94 % of control

CCN(Cc1cccc(S(=O)(=O)O)c1)c1ccc(C(=C2C=CC(=[N+](CC)Cc3cccc(S(=O)(=O)O)c3)C=C2)c2ccc(S(=O)(=O)O)cc2)cc1
inactive: [2] 100 % of control | [3] 99 % of control | [4] 94 % of control

C[CH2][Sn]([CH2]C)[S]CC(N)C(=O)O (stereo unspecified)
inactive: dose: 3.75 mg/kg/injection, schedule: Q01DX005 (ip), vehicle: Klucel (hydroxypropylcellulose) (HPC) 110 % of control | dose: 7.5 mg/kg/injection, schedule: Q01DX005 (ip), vehicle: Klucel (hydroxypropylcellulose) (HPC) 120 % of control

CC1CC(c2ccccc2)C(c2ccccc2Cl)C(=O)O1 (stereo unspecified)
inactive: [8] 101 % of control | [9] 96 % of control | [10] 96 % of control

O=C1SC(Nc2ccc(Br)cc2)/C(=N\N=C2/C(Nc3ccc(Br)cc3)SC(=O)N2Cc2ccccc2)N1Cc1ccccc1 (stereo unspecified)
inactive: [8] 97 % of control | [9] 91 % of control | [10] 91 % of control

Cc1cc(=O)n(-c2ccc(S(N)(=O)=O)cc2)c(C)c1C(=O)O
inactive: dose: 50.0 mg/kg/injection, schedule: Q01DX005 (ip), vehicle: saline with Tween-80 98 % of control | dose: 100.0 mg/kg/injection, schedule: Q01DX005 (ip), vehicle: saline with Tween-80 96 % of control | dose: 200.0 mg/kg/injection, schedule: Q01DX005 (ip), vehicle: saline with Tween-80 103 % of control

CC(C)(C)N=NNc1ccc([N+](=O)[O-])cc1
inactive: dose: 12.5 mg/kg/injection, schedule: Q01DX009 (ip), vehicle: distilled water + Tween-80 106 % of control | dose: 25.0 mg/kg/injection, schedule: Q01DX009 (ip), vehicle: distilled water + Tween-80 100 % of control | dose: 50.0 mg/kg/injection, schedule: Q01DX009 (ip), vehicle: distilled water + Tween-80 93 % of control | dose: 100.0 mg/kg/injection, schedule: Q01DX009 (ip), vehicle: distilled water + Tween-80 86 % of control | dose: 200.0 mg/kg/injection, schedule: Q01DX009 (ip), vehicle: distilled water + Tween-80 96 % of control

COc1cc(/C=C/C(=O)O)cc(OC)c1
inactive: dose: 50.0 mg/kg/injection, schedule: Q01DX005 (ip), vehicle: Klucel (hydroxypropylcellulose) (HPC) 103 % of control | dose: 100.0 mg/kg/injection, schedule: Q01DX005 (ip), vehicle: Klucel (hydroxypropylcellulose) (HPC) 103 % of control | dose: 200.0 mg/kg/injection, schedule: Q01DX005 (ip), vehicle: Klucel (hydroxypropylcellulose) (HPC) 109 % of control

CCCn1c2ccccc2c2ccccc21
inactive: [5] 104 % of control | [6] 104 % of control | [7] 100 % of control
